Patent US20220257529A1, “USE OF C[…] THE TREATMENT OF […] SPASMS” (GW Research Limited, priority 2019, published 2022)
“Also recorded” adds a separate entry of the source.

Experiments:
epileptic spasms [1] = test: Treatment history of enrolled patients before CBD; type: in vivo, human; settings: before initiation of CBD treatment
epileptic spasms [2] = settings: first-line treatment of epileptic spasms; cited from earlier work
[3] = Open label, expanded-access program: caregiver logs of cognitive changes, behavioural changes and adverse events; type: in vivo, human
Description: (§1) Patients were administered botanically derived purified CBD in a 100 mg/mL sesame oil-based solution at an initial dose of five milligrams per kilogram per day (mg/kg/day) in two divided doses. Dose was then increased weekly by 5 mg/kg/day to a goal of 25 mg/kg/day.
(§2) A maximum dose of 50 mg/kg/day could be utilised for patients who were tolerating the medication but had not achieved seizure control; these patients had further weekly titration by 5 mg/kg/day.
During subsequent follow-up visits, parents provided weekly logs regarding cognitive changes, behavioural changes, and adverse events while taking CBD. Additionally, subjects had electroencephalogram (EEG) testing prior to and after the initiation of CBD.

[4] = test system: other seizure types (tonic-clonic seizures); test: Open label, expanded-access program: other seizure types; type: in vivo, human
Description: as §1
(§3) Seizure frequency, intensity, and duration were recorded by caregivers in a diary during a baseline period of at least 28 days. Changes in seizure frequency relative to baseline were calculated after 2 weeks and 1, 2, 3, 4, 6, 9 and 12 months of treatment. Epileptic spasms were counted by clusters.

[5] = test system: refractory epileptic spasms (ES); test: Open label, expanded-access program: epileptic spasm frequency relative to baseline (caregiver diary); type: in vivo, human; settings: for Percent Change in Spasm Frequency, Average: average of nine patients; for Percent Change in Spasm Frequency at CBD dose, Average: average of patients
Description: Subjects were required to be on one or more AEDs at stable doses for a minimum of two weeks prior to baseline and to have stable vagus nerve stimulation (VNS) settings and ketogenic diet ratios for a minimum of four weeks prior to baseline.
as §1, §2
There were nine patients in this study, and each received CBD for at least 12 months. Modifications were made to concomitant AEDs as per clinical indication.
as §3
Patients were defined as responders if they had more than 50% reduction in seizure frequency compared to baseline. […] The percent change in seizure frequency was calculated as follows: […]
The percent change reported at each time interval reflects reported seizure frequency over the past month relative to baseline. The EEG findings were correlated to the corresponding month seizure frequency change as well as the baseline seizure frequency.

## C=CC(N)CCC(=O)O (stereo not shown) [VGB, vigabatrin]
Epileptic spasms [1]
  outcome of treatment before CBD: lack of efficacy
Epileptic spasms [2]
  significant risks: visual field defects

## Adrenocorticotropin hormone (SYSMEHFRWGKPVGKKRRPVKVYPNGAEDESAEAFPLEF; Corticotropin; UniProt P01189 138-176, looked up) [ACTH, preferred first-line treatment of epileptic spasms]
Epileptic spasms [1]
  outcome of treatment before CBD: without significant benefit
Epileptic spasms [2]
  significant risks: increased risk of infection

## C=C(C)[C@@H]1CCC(C)=C[C@H]1c1c(O)cc(CCCCC)cc1O [CBD, cannabidiol]
[3]; four of nine patients
  patients with caregiver-reported sustained improvements in alertness, verbal capacity and communications, cognitive availability, initiation of emotional and physical connections: 44%
[3]; patients 3 and 6 at 45 mg/kg/day and 50 mg/kg/day, reduced to 35 mg/kg/day
  adverse event leading to dose reduction: diarrhoea
[3]; treatment group of the program
  improvement in cognitive and behavioural domains (in words): significant improvement in cognitive and behavioural domains
[4]; after starting CBD treatment
  freedom from tonic-clonic seizures: one patient became seizure free of tonic-clonic seizures
[4]; other seizure types experienced by the patients
  frequency of other seizure types: effective in reducing the frequency of other seizure types
[5]; 10 mg/kg/day
  Responder rate at CBD dose: 66.70%
  Percent Change in Spasm Frequency at CBD dose, Average: −67.50%
[5]; 20 mg/kg/day
  Responder rate at CBD dose: 77.80%
  Percent Change in Spasm Frequency at CBD dose, Average: −67.20%
[5]; 25 mg/kg/day
  Responder rate at CBD dose: 66.70%
  Percent Change in Spasm Frequency at CBD dose, Average: −61.40%
[5]; 35 mg/kg/day
  Responder rate at CBD dose: 57.10%
  Percent Change in Spasm Frequency at CBD dose, Average: −56.00%
[5]; 45 mg/kg/day
  Responder rate at CBD dose: 80.00%
  Percent Change in Spasm Frequency at CBD dose, Average: −80.90%
[5]; 50 mg/kg/day
  Responder rate at CBD dose: 83.30%
  Percent Change in Spasm Frequency at CBD dose, Average: −50.20%
[5]; 1 month of treatment
  Responder Rate (percent of patients with a greater than 50% reduction in spasm frequency): 77.8%
[5]; 2 months of treatment
  Responder Rate (percent of patients with a greater than 50% reduction in spasm frequency): 66.7%
[5]; 2 weeks of treatment
  Responder Rate (percent of patients with a greater than 50% reduction in spasm frequency): 66.7%
[5]; 3 months of treatment
  Responder Rate (percent of patients with a greater than 50% reduction in spasm frequency): 55.6%
[5]; 6 months of treatment
  Responder Rate (percent of patients with a greater than 50% reduction in spasm frequency): 77.8%
[5]; 9 months of treatment
  Responder Rate (percent of patients with a greater than 50% reduction in spasm frequency): 77.8%
[5]; 12 months of treatment
  Responder Rate (percent of patients with a greater than 50% reduction in spasm frequency): 77.8%
[5]; after 12 months of treatment, five of nine patients
  patients spasm-free: 55.6%
[5]; after one month of CBD treatment
  patients epileptic spasm-free: One patient was epileptic spasm-free
[5]; after two months of CBD treatment
  patients epileptic spasm-free: two other patients were epileptic spasm-free
[5]; 1 month
  Percent Change in Spasm Frequency, Average: −67.20%
[5]; 2 months
  Percent Change in Spasm Frequency, Average: −64.10%
[5]; 2 weeks
  Percent Change in Spasm Frequency, Average: −67.50%
[5]; 3 months
  Percent Change in Spasm Frequency, Average: −59.00%
[5]; 6 months
  Percent Change in Spasm Frequency, Average: −73.70%
[5]; 9 months
  Percent Change in Spasm Frequency, Average: −61.53%
[5]; 12 months
  Percent Change in Spasm Frequency, Average: −51.35%
[5]; overall conclusion of the program, adjunctive to AEDs
  effect on number of epileptic spasms (in words): significantly reduce the number of epileptic spasms; also recorded: significant reduction in epileptic spasms
[5]; patients 6, 7 and 8, after 12 months of treatment
  seizure freedom in patients suffering from TSC: all three were completely seizure free
